Measured values taken from patent US7427680B2, “Fluorogenic substrates for BETA-lactamase gene expression” (The Regents of the University of California, priority 2001, dated 2008).

Columns and labels:
[1] = test system: Bla-stably-transfected C6 glioma cells; test: Fluorescence imaging of Bla activity in living cells; type: cell-based; settings: loaded in Hank's Balanced Salts Solution 25 min, room temperature; excitation 540/25, emission 635/55
Method: FIG. 13A illustrates the structures of CR2 and CR2/AM. FIG. 13B presents fluorescence images (40×magnification) of wild type (right) and Bla-stably-transfected (left) C6 glioma cells loaded with CR2/AM in Hank's Balanced Salts Solution for 25 min at room temperature. The excitation filter was set at 540/25 (540 nm peak with a width of 25 nm around the peak). The emission filter was set at 635/55.

Bla = Bla (Escherichia coli, UniProt P62593); settings: cited from earlier work
Chain of Bla (P62593 24-286 limits assumed): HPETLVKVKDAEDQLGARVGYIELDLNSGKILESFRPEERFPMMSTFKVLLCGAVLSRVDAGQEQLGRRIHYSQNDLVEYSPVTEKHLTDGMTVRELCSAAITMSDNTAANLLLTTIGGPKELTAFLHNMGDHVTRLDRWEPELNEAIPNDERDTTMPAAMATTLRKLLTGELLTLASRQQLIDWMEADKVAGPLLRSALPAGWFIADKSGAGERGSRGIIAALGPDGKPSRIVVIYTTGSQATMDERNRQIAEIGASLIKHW

Row | SMILES | imaging of Bla activity in living cells [1] | Km (Bla; Zlokarnik et al., Science 1998) | kcat (Bla; Zlokarnik et al., Science 1998) | enhancement of fluorescent emission (Bla; at similar wavelengths (about 460 nm))
1 | CC(=O)OCOC(=O)C1=C(/C=C\COc2ccc3nc4ccc(=O)cc-4oc3c2)C[S@H](O)[C@@H]2[C@H](NC(=O)Cc3cccs3)C(=O)N12 [CR2/AM] | able to image the Bla activity |  |  | 
2 | O=C(CNC(=O)c1cc2cc(Cl)c(O)cc2oc1=O)N[C@@H]1C(=O)N2C(C(=O)O)=C(CSc3ccc4c(c3)C(=O)OC43c4ccc(O)cc4Oc4cc(O)ccc43)CS[C@H]12 [CCF2] |  | 23 µM | 29 s⁻¹ | 20 fold
